Reference: article PMC11488158 (BJA: British Journal of Anaesthesia, 2024)

Columns and labels:
[1] = biological target: T1, ryanodine receptor 1 (RyR1) (Oryctolagus cuniculus, UniProt P11716); assay: protection from AziPm photolabelling ([…] propofol) in purified RyR1; the IC50 is from [3H]ryanodine binding in wild-type heavy SR vesicles at pCa […] (species not given, assumed)
T1 construct: full-length RyR1 purified from wild-type rabbit skeletal muscle; with FKBP12.6

[2] = biological target: T2, ryanodine receptor 1 (RyR1) (Homo sapiens, UniProt P21817); assay: Fura-2 Ca2+ imaging, inhibition of Ca2+ release induced by […] ryanodine; assay type: cell-based
T2 construct: wild-type human skeletal myotubes

[3] = biological target: T1, ryanodine receptor 1 (RyR1); assay: photoaffinity labelling of purified RyR1-FKBP12.[…] with MS; the IC50 is from [3H]ryanodine binding in wild-type heavy SR vesicles at pCa […] (species not given, assumed)

T1 sequence (P11716 whole entry): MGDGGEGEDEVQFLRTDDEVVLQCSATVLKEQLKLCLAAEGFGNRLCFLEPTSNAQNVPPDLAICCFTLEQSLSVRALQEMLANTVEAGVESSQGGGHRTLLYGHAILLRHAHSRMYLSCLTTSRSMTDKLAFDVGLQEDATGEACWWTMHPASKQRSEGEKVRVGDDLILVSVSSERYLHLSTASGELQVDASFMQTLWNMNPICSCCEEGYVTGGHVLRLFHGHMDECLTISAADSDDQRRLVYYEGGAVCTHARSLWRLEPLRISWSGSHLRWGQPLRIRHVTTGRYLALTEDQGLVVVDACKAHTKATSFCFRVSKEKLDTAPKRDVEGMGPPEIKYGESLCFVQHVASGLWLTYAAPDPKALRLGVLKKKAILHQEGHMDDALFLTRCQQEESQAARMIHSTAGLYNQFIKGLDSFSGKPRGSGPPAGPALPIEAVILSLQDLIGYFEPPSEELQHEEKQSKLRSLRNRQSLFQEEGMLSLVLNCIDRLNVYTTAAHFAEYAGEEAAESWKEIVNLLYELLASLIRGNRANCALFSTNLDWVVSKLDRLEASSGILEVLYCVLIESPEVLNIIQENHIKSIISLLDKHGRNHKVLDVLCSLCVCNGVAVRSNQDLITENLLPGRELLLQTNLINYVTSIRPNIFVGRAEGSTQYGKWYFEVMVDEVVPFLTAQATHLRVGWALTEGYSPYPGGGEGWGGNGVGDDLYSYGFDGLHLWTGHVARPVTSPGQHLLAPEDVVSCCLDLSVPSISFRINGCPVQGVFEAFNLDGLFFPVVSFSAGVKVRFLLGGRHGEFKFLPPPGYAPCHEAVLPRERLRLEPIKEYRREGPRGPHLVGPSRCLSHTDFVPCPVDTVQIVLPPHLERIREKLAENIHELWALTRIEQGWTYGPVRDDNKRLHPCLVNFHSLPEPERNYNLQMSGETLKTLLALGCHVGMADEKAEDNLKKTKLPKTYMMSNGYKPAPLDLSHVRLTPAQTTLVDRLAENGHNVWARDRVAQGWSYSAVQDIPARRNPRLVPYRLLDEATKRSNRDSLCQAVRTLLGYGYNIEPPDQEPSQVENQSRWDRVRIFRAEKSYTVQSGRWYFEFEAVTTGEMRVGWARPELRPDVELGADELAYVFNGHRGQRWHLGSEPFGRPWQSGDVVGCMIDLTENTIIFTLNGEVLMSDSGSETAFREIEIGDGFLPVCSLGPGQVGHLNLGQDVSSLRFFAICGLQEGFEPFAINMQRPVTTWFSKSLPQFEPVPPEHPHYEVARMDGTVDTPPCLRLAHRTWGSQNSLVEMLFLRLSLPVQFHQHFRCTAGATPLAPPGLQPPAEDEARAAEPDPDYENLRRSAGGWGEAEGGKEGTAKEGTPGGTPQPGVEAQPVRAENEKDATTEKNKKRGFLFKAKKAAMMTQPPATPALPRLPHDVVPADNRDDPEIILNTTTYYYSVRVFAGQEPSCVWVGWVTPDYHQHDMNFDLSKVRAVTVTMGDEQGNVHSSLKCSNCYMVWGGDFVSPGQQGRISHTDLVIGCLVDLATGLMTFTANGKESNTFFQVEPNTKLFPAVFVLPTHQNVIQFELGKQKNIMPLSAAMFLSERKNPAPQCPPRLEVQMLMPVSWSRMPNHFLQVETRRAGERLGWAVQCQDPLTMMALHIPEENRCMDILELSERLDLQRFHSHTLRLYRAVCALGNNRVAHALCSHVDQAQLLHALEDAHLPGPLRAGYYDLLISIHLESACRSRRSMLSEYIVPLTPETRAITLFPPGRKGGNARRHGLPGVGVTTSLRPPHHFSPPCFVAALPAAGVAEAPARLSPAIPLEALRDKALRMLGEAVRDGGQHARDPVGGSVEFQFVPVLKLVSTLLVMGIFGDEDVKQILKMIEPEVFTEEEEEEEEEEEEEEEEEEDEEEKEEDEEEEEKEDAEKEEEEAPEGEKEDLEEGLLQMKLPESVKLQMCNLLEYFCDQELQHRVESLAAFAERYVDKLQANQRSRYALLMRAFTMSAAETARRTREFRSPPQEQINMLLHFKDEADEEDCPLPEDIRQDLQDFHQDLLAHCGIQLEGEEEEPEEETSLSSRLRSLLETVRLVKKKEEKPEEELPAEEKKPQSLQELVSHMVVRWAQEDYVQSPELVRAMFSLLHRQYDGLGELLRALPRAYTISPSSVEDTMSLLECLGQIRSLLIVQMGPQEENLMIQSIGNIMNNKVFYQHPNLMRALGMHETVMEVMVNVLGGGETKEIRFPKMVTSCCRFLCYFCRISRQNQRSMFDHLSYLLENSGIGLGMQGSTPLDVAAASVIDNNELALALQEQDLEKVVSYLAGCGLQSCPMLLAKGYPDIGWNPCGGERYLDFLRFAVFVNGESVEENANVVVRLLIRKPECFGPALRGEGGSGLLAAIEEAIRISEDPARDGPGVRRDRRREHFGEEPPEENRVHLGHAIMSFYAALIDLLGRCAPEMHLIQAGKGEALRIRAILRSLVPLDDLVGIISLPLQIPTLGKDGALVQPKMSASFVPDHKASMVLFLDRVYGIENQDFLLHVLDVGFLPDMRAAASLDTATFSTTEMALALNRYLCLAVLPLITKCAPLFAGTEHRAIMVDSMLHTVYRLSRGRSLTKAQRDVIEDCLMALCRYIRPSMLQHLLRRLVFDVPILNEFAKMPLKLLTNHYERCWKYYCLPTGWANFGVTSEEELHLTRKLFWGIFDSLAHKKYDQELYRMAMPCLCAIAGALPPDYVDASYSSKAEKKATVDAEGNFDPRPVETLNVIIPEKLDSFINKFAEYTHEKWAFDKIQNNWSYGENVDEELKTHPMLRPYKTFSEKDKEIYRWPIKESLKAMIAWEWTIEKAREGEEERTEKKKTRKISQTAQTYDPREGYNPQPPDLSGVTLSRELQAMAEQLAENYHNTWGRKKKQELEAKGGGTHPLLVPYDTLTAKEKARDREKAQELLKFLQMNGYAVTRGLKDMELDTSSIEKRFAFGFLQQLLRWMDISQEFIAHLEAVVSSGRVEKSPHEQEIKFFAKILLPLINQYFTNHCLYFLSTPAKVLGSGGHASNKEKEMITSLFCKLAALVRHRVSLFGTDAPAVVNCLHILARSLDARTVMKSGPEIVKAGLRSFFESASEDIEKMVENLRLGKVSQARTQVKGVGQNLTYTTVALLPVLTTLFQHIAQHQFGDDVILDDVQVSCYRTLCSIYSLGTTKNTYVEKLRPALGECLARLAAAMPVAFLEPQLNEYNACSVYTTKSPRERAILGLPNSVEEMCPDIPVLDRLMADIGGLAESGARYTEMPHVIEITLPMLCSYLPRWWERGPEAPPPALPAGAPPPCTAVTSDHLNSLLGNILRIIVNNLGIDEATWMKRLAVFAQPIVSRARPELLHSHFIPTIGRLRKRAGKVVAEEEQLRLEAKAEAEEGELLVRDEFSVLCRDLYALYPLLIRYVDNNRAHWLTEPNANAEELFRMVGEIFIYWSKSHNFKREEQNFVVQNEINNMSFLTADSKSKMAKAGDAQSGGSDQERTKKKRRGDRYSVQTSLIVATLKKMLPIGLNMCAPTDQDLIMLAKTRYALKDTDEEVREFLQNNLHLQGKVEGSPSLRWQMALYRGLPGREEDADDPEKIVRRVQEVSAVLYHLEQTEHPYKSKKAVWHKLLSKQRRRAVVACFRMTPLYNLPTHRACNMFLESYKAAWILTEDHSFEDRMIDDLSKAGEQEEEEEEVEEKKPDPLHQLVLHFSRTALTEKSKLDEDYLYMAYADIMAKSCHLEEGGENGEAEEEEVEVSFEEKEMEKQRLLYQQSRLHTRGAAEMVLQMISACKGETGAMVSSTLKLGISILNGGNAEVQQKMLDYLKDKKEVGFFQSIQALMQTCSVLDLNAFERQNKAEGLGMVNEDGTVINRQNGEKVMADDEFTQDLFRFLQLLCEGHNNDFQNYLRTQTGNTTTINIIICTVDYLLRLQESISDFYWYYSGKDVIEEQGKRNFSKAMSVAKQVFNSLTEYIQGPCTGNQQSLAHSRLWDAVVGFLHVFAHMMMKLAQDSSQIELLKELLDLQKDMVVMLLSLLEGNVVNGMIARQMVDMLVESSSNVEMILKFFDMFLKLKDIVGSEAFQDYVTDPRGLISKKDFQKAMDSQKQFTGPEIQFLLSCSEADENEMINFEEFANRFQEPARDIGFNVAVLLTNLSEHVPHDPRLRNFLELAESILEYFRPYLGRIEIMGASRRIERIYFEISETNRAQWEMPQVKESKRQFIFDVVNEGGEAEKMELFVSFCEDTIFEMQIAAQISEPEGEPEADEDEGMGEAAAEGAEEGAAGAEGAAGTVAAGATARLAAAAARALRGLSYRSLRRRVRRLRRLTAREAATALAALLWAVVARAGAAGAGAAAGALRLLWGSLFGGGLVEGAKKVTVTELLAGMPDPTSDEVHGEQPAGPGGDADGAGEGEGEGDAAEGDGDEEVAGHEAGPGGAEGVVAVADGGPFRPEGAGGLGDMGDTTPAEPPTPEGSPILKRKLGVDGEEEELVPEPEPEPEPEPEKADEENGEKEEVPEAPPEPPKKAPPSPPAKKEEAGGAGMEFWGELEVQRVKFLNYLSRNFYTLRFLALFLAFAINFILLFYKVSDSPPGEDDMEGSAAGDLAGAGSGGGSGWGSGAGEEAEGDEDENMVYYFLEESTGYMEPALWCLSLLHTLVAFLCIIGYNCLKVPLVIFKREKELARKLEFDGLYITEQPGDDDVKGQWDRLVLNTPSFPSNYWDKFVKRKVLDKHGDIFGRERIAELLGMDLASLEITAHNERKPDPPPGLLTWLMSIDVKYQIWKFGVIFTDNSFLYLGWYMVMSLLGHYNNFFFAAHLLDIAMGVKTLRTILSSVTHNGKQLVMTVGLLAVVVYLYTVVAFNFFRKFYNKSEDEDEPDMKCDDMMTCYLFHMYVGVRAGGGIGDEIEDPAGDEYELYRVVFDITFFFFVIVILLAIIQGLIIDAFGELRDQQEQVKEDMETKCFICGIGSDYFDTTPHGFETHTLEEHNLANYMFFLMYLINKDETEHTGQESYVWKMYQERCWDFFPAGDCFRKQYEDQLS

Compound | IC50 [1] [µM] | IC50 [2] [µM] | IC50 [3] [µM]
CC(C)c1cccc(C(C)C)c1O [Propofol] | 5.8 | 29.5 | –
CC(C)c1ccc(C2(C(F)(F)F)N=N2)cc1O [m-azipropofol] | – | – | 6.9
